In patent US20220251124A1, “3,5-BIS(PHENYL)-1H-HETEROARYL DERIVATIVES AS MEDICAMENTS” (INSTITUTE OF BIOTECHNOLOGY CAS, V.V.I., priority 2019, published 2022):

Key:
Format in all cases: cell-based
MCF7 cells = experiment: crystal violet assay, cellular viability (cytostatic and cytotoxic effect), 48 hrs; conditions: Homo sapiens, MCF7, 48 h, MCF7 (parental/control), crystal violet, read-out: IC50
Experimental: (§1) Compound 1 and a comparative compound deferasirox (DFX) were tested in their efficacy to kill/suppress proliferation of malignant breast cancer MCF7 cells representing estrogen-dependent type of breast cancer. Briefly, 10.000 cells per well were seeded in a 96-well plate on one day and the next day the tested compounds were added and incubated with the cells for 48 hrs. The cells were then fixed with 4% paraformaldehyde, stained with 0.05% crystal violet, washed with PBS, and solubilized in 1% SDS. The absorbance of the plate at 595 nm was then measured, quantifying the number of viable cells.

MDA-MB-231 cells = experiment: crystal violet assay, cellular viability, 48 hrs; conditions: Homo sapiens, MDA-MB-231, 48 h, MDA-MB-231, crystal violet, read-out: IC50
Experimental: as §1
Compound 1 and the comparative compound deferasirox were tested in their efficacy to kill/suppress proliferation of malignant MDA-MB-231 cancer cells representing hard to treat triple negative breast cancer. The procedure is identical to that in example 12.

[1] = system: MCF7 mammospheres (cancer stem-like cells); experiment: formation and growth of mammospheres, Cell Titer Glo 3D; conditions: 1 μM, 140 hrs
Experimental: To test the effect of compound 1 on the viability and proliferation of other resistant cancer cell types, we utilized a model of cancer stem-like cells that can be cultivated in vitro, so-called “mammospheres”. […] In this assay MCF7 spheres were dissociated to single cells/small spheres, seeded 10,000 cells per well on a special cell culture plastic that is non adherent in the Mammocult medium (Stem cell technologies) and compound 1 and compound 2 at 1 μM were added. This represents the non-cytotoxic concentration. Cells were left to grow and generate spheres for 140 hrs. The amount of cells was then measured by the Cell TiterGlo 3D reagent (Promega) that determines cell counts of 3D cultured cells as a function of their ATP content that is determined by a chemiluminescent assay.

cancer cell lines = experiment: crystal violet assay, cancer cell lines overall; conditions: cancer cells, crystal violet
Experimental: as §1

MDA-MB-231 [2] = experiment: cell cycle distribution, Vybrant DyeCycle Violet, flow cytometry; conditions: 1 μM
Experimental: (§2) In order to define the effect on cellular level, we investigated the effect of compound 1 and 2 at non-cytotoxic concentrations of the drugs (1 μM) on cell cycle. Cells were cultivated with the compounds for 24 and 48 hrs and then stained with Vybrant DyeCycle VioletReady Flow reagent (ThermoFisher Scientific) that binds to DNA and analyzed by Flow cytometry and Kaluza program to define the proportions of G1,S and G2/M phases of cell cycle. It is evident that both compounds lead to accumulation of cells in G1 phase if the cell cycle, which become more prominent at later time points (see Table 12, 13).

MCF7 [3] = experiment: as above; conditions: 1 μM
Experimental: as §2

MDA-MB-231 [4] = experiment: annexin V/PI staining, cell death induction, 48 hrs
Experimental: (§3) This effect seems to be based mainly on the cytostatic effect of compound 1. To define the ability to kill cells, cell death-inducing potency (cytotoxic efficacy) of DFX and compound 1 have been tested via annexin V/PI staining commonly used as a measure of apoptotic/necrotic cell death. Briefly, cells were seeded in 12-well plate at 100,000 per well, incubated with the selected compounds for 48 hours, then floating cells were spun, adherent cells trypsinized and spun as well followed by the staining with AnnexinV-FITC and PI probes. Cells were then washed with PBS and measured via Fluorescence Activated Sorter.
(§4) Since compound 1 is an iron chelator, we have evaluated the effect of pre-loading compound 1 with iron at a 2:1 ratio and then applying it to the cells, followed by measurement of cell death using the Annexin V/PI staining as in example 4.

MCF7 [5] = experiment: as above
Experimental: as §3, §4

MDA-MB-231 [6] = experiment: cellular ROS, DCF-DA probe, flow cytometry; conditions: 5 μM
Experimental: (§5) The effect of compound 1 on generation of cellular reactive oxygen species (ROS) was evaluated in MCF7 and MDA-MB-231 cells using a cell permeable ROS probe 2′,7′-dichlorodihydrofluorescein diacetate (DCF-DA; Sigma-Aldrich) that measures several reactive species and becomes fluorescent upon oxidation. Cells treated with compound 1 or compound 2 (5 μM) for the described time interval were stained with the probe and then analyzed via Flow cytometry.

MCF7 [7] = experiment: cellular ROS, DCF-DA probe, flow cytometry; conditions: 5 μM
Experimental: as §5

Structure (SMILES): Oc1ccccc1-c1nc(-c2ccccc2O)n(CCCCCCCCCC[P+](c2ccccc2)(c2ccccc2)c2ccccc2)n1 [Compound 2, (10-(3,5-bis(2-hydroxyphenyl)-1H-1,2,4-triazol-1-yl)decyl)triphenylphosphonium Bromide]
- IC50 (MCF7 cells): 175 nM
- IC50 (MDA-MB-231 cells): 464 nM
- chemiluminescence ATP values normalized to control sample set as 100 [1]: 2.82 (0.28)
- IC50 (cancer cell lines): ~100 nM
- proportion of cells in G1 (MDA-MB-231 [2]; 24 hrs): 64.0 (7.7)
- proportion of cells in G2 (MDA-MB-231 [2]; 24 hrs): 28.8 (8.0)
- proportion of cells in S (MDA-MB-231 [2]; 24 hrs): 7.3
- proportion of cells in G1 (MDA-MB-231 [2]; 48 hrs): 74.1 (3.7)
- proportion of cells in G2 (MDA-MB-231 [2]; 48 hrs): 18.5 (5.1)
- proportion of cells in S (MDA-MB-231 [2]; 48 hrs): 7.4
- proportion of cells in G1 (MCF7 [3]; 24 hrs): 74.0 (1.3)
- proportion of cells in G2 (MCF7 [3]; 24 hrs): 20.3
- proportion of cells in S (MCF7 [3]; 24 hrs): 5.7
- proportion of cells in G1 (MCF7 [3]; 48 hrs): 77.5 (2.2)
- proportion of cells in G2 (MCF7 [3]; 48 hrs): 11.7 (3.8)
- proportion of cells in S (MCF7 [3]; 48 hrs): 10.8 (4.8)
- dead cells (AnnexinV/PI) (MDA-MB-231 [4]; 1 μM): 26.7 (5.8) %
- dead cells (AnnexinV/PI) (MDA-MB-231 [4]; 2 μM): 38.5 (7.3) %
- dead cells (AnnexinV/PI) (MDA-MB-231 [4]; 5 μM): 87.8 (4.2) %
- dead cells (AnnexinV/PI) (MCF7 [5]; 1 μM): 44.2 (0.3) %
- dead cells (AnnexinV/PI) (MCF7 [5]; 2 μM): 41.2 (0.4) %
- dead cells (AnnexinV/PI) (MCF7 [5]; 5 μM): 60.8 (18.6) %
- DCF-DA mean fluorescence (MDA-MB-231 [6]; 5 min, MDA-MB-231 (0 min = 100)): 255.9 (66.3)
- DCF-DA mean fluorescence (MDA-MB-231 [6]; 10 min, MDA-MB-231): 343.5 (78.9)
- DCF-DA mean fluorescence (MDA-MB-231 [6]; 15 min, MDA-MB-231): 555.6 (122.4)
- DCF-DA mean fluorescence (MDA-MB-231 [6]; 30 min, MDA-MB-231): 473.4 (136.1)
- DCF-DA mean fluorescence (MDA-MB-231 [6]; 60 min, MDA-MB-231): 332.0 (158.7)
- DCF-DA mean fluorescence (MCF7 [7]; 5 min, MCF7 (0 min = 100)): 316.5 (96.0)
- DCF-DA mean fluorescence (MCF7 [7]; 10 min, MCF7): 558.3 (186.5)
- DCF-DA mean fluorescence (MCF7 [7]; 15 min, MCF7): 821.5 (73.8)
- DCF-DA mean fluorescence (MCF7 [7]; 30 min, MCF7): 1201.0 (444.0)
- DCF-DA mean fluorescence (MCF7 [7]; 60 min, MCF7): 1029.0 (407.7)
